Data published in article PMC7404261 (2020).

Tests used:
[1] = test system: ssDNA-G4-Fw (DNA, G4) CGGGAAAAGGCGCGCGGAAGGGGT; assay: ThT staining of nondenaturing gel; settings: K+ (100 mM KCl annealing, 10 mM KCl gel); Tris/HCl pH 7.5 annealing; 1x TBE gel; stained with 5 µM ThT
[2] = test system: dsDNA-G4 (DNA, duplex) CGGGAAAAGGCGCGCGGAAGGGGT/ACCCCTTCCGCGCGCCTTTTCCCG; assay: ThT staining of nondenaturing gel; settings: K+ (100 mM KCl annealing, 10 mM KCl gel); Tris/HCl pH 7.5 annealing; 1x TBE gel; stained with 5 µM ThT
[3] = test system: ssDNA-G4-Rv (DNA, single strand) ACCCCTTCCGCGCGCCTTTTCCCG; assay: ThT staining of nondenaturing gel; settings: K+ (100 mM KCl annealing, 10 mM KCl gel); Tris/HCl pH 7.5 annealing; 1x TBE gel; stained with 5 µM ThT
[4] = test system: HpTYMS-G4-T (DNA, hairpin) GGGAAAAGGCGCGCGGAAGGGGTTTTTGGGGAAGGCGCGCGGAAAAGGG; assay: ThT staining of nondenaturing gel; settings: K+ (100 mM KCl annealing, 10 mM KCl gel); Tris/HCl pH 7.5 annealing; 1x TBE gel; stained with 5 µM ThT
[5] = test system: HpTYMS-G4-T-WC (DNA, hairpin) CCCTTTTCCGCGCGCCTTCCCCTTTTTGGGGAAGGCGCGCGGAAAAGGG; assay: ThT staining of nondenaturing gel; settings: K+ (100 mM KCl annealing, 10 mM KCl gel); Tris/HCl pH 7.5 annealing; 1x TBE gel; stained with 5 µM ThT
[6] = test system: dsDNA-G4 (DNA, duplex) CGGGAAAAGGCGCGCGGAAGGGGT/ACCCCTTCCGCGCGCCTTTTCCCG; assay: ethidium bromide staining of nondenaturing gel; settings: K+ (100 mM KCl annealing, 10 mM KCl gel); Tris/HCl pH 7.5 annealing; 1x TBE gel; 1 µg/mL EthBr after ThT staining
[7] = test system: ssDNA-G4-Rv (DNA, single strand) ACCCCTTCCGCGCGCCTTTTCCCG; assay: ethidium bromide staining of nondenaturing gel; settings: K+ (100 mM KCl annealing, 10 mM KCl gel); Tris/HCl pH 7.5 annealing; 1x TBE gel; 1 µg/mL EthBr after ThT staining

| SMILES | binding [1] | binding [2] | binding [3] | binding [4] | binding [5] | binding [6] | binding [7] |
| --- | --- | --- | --- | --- | --- | --- | --- |
| Cc1ccc2c(c1)sc(-c1ccc(N(C)C)cc1)[n+]2C | yes | no | no | yes | yes |  |  |
| CC[n+]1c(-c2ccccc2)c2cc(N)ccc2c2ccc(N)cc21 |  |  |  |  |  | yes | yes |
